Key:
human CRC HCT116 cells = assay: MTT cell viability / IC50 on HCT116 cells; format: cell-based; conditions: for IC50: MTT assay, 1 to 50 µM, mean ± SEM of at least three experiments; for viability at 50 µM: HCT-116
Protocol: (§1) Cells were grown in DMEM medium for HT-29 cells and RPMI 1640 medium for HCT116 cells, supplemented with 10% FBS, 1% L-glutamine and 100 U/mL penicillin and 100 μg/mL streptomycin. Cultures were maintained in a humidified atmosphere containing 5% CO2 at 37 °C. Stock solutions of each compound were used at 10^−2 M in DMSO and then diluted in culture medium to obtain the appropriate final concentrations. […] L929 cell line is a non-cancer cell line derived from L-strain (L cells) and has been grown in the Peptinov laboratory for years. L929 cells are murine adherent fibroblasts from subcutaneous connective tissue (areolar and adipose tissues). Cells were grown in DMEM medium supplemented with 10% FBS, 1% L-glutamine and 100 U/mL penicillin and 100 µg/mL streptomycin and maintained in a humidified incubator at 37 °C, 5% CO2. When confluence is at 80%, cells are trypsinyzed for 3 min and diluted in fresh medium. Each batch of cells is kept for 15 passages before being discarded and a new batch thawed.
(§2) All compounds were tested on the metabolic activity of the cells using the MTT colorimetric assay. Briefly, cells were seeded in 96-well microplates at 8 × 10^3 cells/well for human CRC HT-29 cells and 5 × 10^3 cells/well for human CRC HCT116 cells and grown for 24 h in appropriate culture medium prior to exposure or not to compounds (6–27) with concentration ranges from 1 to 50 µM. After 48 h of treatment, MTT (5 g/L in Phosphate-buffered saline (PBS)) was added and incubated for another 3 h. The MTT was then removed from the wells and 100 µL/well of DMSO were added to dissolve formazan. The optical density was detected with a microplate reader (Thermoscientific, Multiskan FC) at 550 nm and cell viability was expressed as a percentage of each treatment condition compared to control cells. IC50 values were calculated for all compounds from the dose–response curve.

human CRC HT-29 cells [1] = assay: MTT cell viability / IC50 on HT-29 cells; format: cell-based; conditions: for IC50: MTT assay, 1 to 50 µM, mean ± SEM of at least three experiments; for viability at 50 µM: HT-29; for viability at 50 µM / Cell viability (%) HT-29: MTT screening, 50 µM
Protocol: as §1, §2

human CRC HT-29 cells [2] = assay: DNA fragmentation, Cell Death Detection ELISA, HT-29; format: cell-based; conditions: treated at IC50, n-fold compared to control
Protocol: Human CRC HT-29 and HCT116 cells were treated or not with the determined IC50 values of compounds (12a, 10a, 10b) for 24 and 48 h and then harvested with trypsin. Histone release from the nucleus during apoptosis was analyzed using the Cell Death Detection ELISA^PLUS as previously described. Cytosol extracts from 10^5 cells of each condition were obtained and DNA fragmentation was measured according to the manufacturer’s protocol. Results were reported as n-fold compared to control cells.

PARP = assay: Western blot of cleaved PARP in HT-29 cells; format: cell-based, human
Protocol: Human CRC HT-29 and HCT116 cells were treated or not with the determined IC50 values of compounds (12a, 10a, 10b) for indicated times (6, 12, 24 and 48h) and then harvested with trypsin. For total protein extraction, collected samples of each condition were washed with PBS. Then, the total cell pool was centrifuged at 200× g for 5 min at 4 °C and homogenized in RIPA lysis buffer (50 mM HEPES, pH 7.5, 150 mM NaCl, 1% sodium deoxycholate, 1% NP-40, 0.1% Sodium Dodecyl Sulfate (SDS), […] of aprotinin) containing protease inhibitors according to the manufacturer’s instructions as previously described. Proteins (60 µg) were separated on 12.5% SDS-PAGE gels and transferred to polyvinylidene difluoride (PVDF) membranes. Membranes were probed with respective human antibodies against caspase-3, cleaved caspase-3, PARP and Akt, ERK, p38 MAP Kinases and its phosphorylated forms according to the manufacturer’s instructions. After incubation with appropriate secondary antibodies, blots were developed using the «Immobilon Western » substrate following the manufacturer’s protocol and G:BOX system (Syngene, Ozyme). Membranes were then reblotted with human anti-β-actin used as a loading control.
Cells were treated or not for 24 and 48 h, with IC50 values of compounds 10a, 10b and 12a, for human CRC HT-29 cells and compounds 10a and 12a for human CRC HCT116 cells. Total lysates were collected, and expression of apoptosis-related proteins was determined by Western blot analysis.

[3] = Homo sapiens, 50 µM, 48 h, MTT screening
[4] = concentrations up to 50 µM, 48 h

SMILES	IC50 (human CRC HCT116 cells; Homo sapiens, HCT-116, 48 h)	IC50 (human CRC HT-29 cells [1]; Homo sapiens, HT-29, 48 h)	IC50 (human CRC HCT116 cells; 48 h)	IC50 (human CRC HT-29 cells [1]; 48 h)	other results
COc1ccc(C(=Cc2ccccc2)c2ccccn2)cc1 [Compound 6a, 2-(1-(4-méthoxyphenyl) -2-phenylvinyl) pyridine]	35.6 ± 2.08 µM	30.3 ± 1.78 µM			viability at 50 µM (human CRC HCT116 cells; [3]): < 50%; viability at 50 µM (human CRC HT-29 cells [1]; Homo sapiens, 48 h): < 50%
COc1ccc(C(Oc2ccc(C(C)=O)cc2)c2ccccn2)cc1 (centres unmarked) [Compound 27, 1-(4-((4-methoxyphenyl)(pyridin-2-yl)methoxy)phenyl)ethanone]	> 50 µM	> 50 µM			
COc1ccc(C(=Cc2ccc(Br)cc2)c2ccccn2)cc1 [Compound 13b, 2-(2-(4-bromophenyl)-1-(4-methoxyphenyl)vinyl)pyridine]	< 35 µM		26.1 ± 2.08 µM	> 50 µM	viability at 50 µM (human CRC HCT116 cells; [3]): < 50%
COc1ccc(C(=Cc2ccc(O)cc2)c2ccccn2)cc1 [Compound 11b, 4-(2-(4-methoxyphenyl)-2-(pyridin-2-yl)vinyl)phenol]	> 50 µM	> 50 µM			
COc1ccc(C(Oc2ccccc2)c2ccccn2)cc1 (centres unmarked) [Compound 17, 2-((4-methoxyphenyl)(phenoxy)methyl)pyridine]	> 50 µM	> 50 µM			
COc1ccc(C=C(c2ccc(OC)cc2)c2ccccn2)cc1 [Compound 8a, 2-(1,2-bis(4-methoxyphenyl)vinyl)pyridine]	> 50 µM	43.5 ± 4.91 µM			viability at 50 µM (human CRC HT-29 cells [1]; Homo sapiens, 48 h): < 50%
COc1ccc(C(=Cc2ccc(C(C)C)cc2)c2ccccn2)cc1 [Compound 9a, 2-(2-(4-isopropylphenyl)-1-(4-methoxyphenyl)vinyl)pyridine]			> 50 µM	> 50 µM	
COc1ccc(C(=Cc2ccc(F)cc2)c2ccccn2)cc1 [Compound 15a, 2-(2-(4-fluorophenyl)-1-(4-methoxyphenyl)vinyl)pyridine]	> 50 µM	43.43 ± 0.31 µM			viability at 50 µM (human CRC HT-29 cells [1]; Homo sapiens, 48 h): < 50%
COc1ccc(C(=Cc2ccc(Br)cc2)c2ccccn2)cc1 [Compound 13a, 2-(2-(4-bromophenyl)-1-(4-methoxyphenyl)vinyl)pyridine]			36.6 ± 2.94 µM	24 ± 2.65 µM	Cell viability (%) HCT116 (human CRC HCT116 cells; 50 µM, 48 h, MTT screening): < 50%; viability at 50 µM (human CRC HT-29 cells [1]; Homo sapiens, 48 h): < 50%
COc1ccc(C(=Cc2ccccc2)c2ccccn2)cc1 [Compound 6b, 2-(1-(4-méthoxyphenyl) -2-phenylvinyl) pyridine]			> 50 µM	> 50 µM	
COc1ccc(C(=Cc2ccc(C(C)C)cc2)c2ccccn2)cc1 [Compound 9b, 2-(2-(4-isopropylphenyl)-1-(4-methoxyphenyl)vinyl)pyridine]	> 50 µM	34.9 ± 0.78 µM			viability at 50 µM (human CRC HT-29 cells [1]; Homo sapiens, 48 h): < 50%
COc1ccc(C(=Cc2ccc(Cl)cc2)c2ccccn2)cc1 [Compound 14a, 2-(2-(4-chlorophenyl)-1-(4-methoxyphenyl)vinyl)pyridine]	42.7 ± 2.24 µM	< 30 µM		28.5 ± 1.82 µM	viability at 50 µM (human CRC HCT116 cells; [3]): < 50%; viability at 50 µM (human CRC HT-29 cells [1]; Homo sapiens, 48 h): < 50%
COc1ccc(C(Oc2ccc(F)cc2)c2ccccn2)cc1 (centres unmarked) [Compound 23, 2-((4-fluorophenoxy)(4-methoxyphenyl)methyl)pyridine]	> 50 µM	> 50 µM			
COc1ccc(C(Oc2ccc(C(F)(F)F)cc2)c2ccccn2)cc1 (centres unmarked) [Compound 24, 2-((4-methoxyphenyl)(4-(trifluoromethyl)phenoxy)methyl)pyridine]	> 50 µM	> 50 µM			
COc1ccc(C(=Cc2ccc(C)cc2)c2ccccn2)cc1 [Compound 7b, 2-(1-(4-methoxyphenyl)-2-(p-tolyl)vinyl)pyridine]			> 50 µM	36.2 ± 4.56 µM	Cell viability (%) HT-29 (human CRC HT-29 cells [1]; 48 h): < 50%
COc1ccc(C(Oc2ccc([N+](=O)[O-])cc2)c2ccccn2)cc1 (centres unmarked) [Compound 25, 2-((4-methoxyphenyl)(4-nitrophenoxy)methyl)pyridine]	> 50 µM	> 50 µM			
COc1ccc(C(Oc2ccc(Cl)cc2)c2ccccn2)cc1 (centres unmarked) [Compound 21, 2-((4-chlorophenoxy)(4-methoxyphenyl)methyl)pyridine]	> 50 µM	> 50 µM			
COc1ccc(C(=Cc2ccc(F)cc2)c2ccccn2)cc1 [Compound 15b, 2-(2-(4-fluorophenyl)-1-(4-methoxyphenyl)vinyl)pyridine]			> 50 µM	> 50 µM	
COc1ccc(C(=Cc2ccc(C(C)(C)C)cc2)c2ccccn2)cc1 [Compound 10b, 2-(2-(4-(tert-butyl)phenyl)-1-(4-methoxyphenyl)vinyl)pyridine]			> 50 µM	25.2 ± 1.28 µM	HT-29 DNA Fragmentation (Fold) (human CRC HT-29 cells [2]; 24 h): 1.24 Fold; HT-29 DNA Fragmentation (Fold) (human CRC HT-29 cells [2]; 48 h): 0.84 Fold; Cell viability (%) HT-29 (human CRC HT-29 cells [1]; 48 h): < 50%; cleaved PARP expression (PARP; HT-29, treated at IC50, 24 h): never been expressed; cleaved PARP expression (PARP; HT-29, treated at IC50, 48 h): never been expressed
COc1ccc(C(Oc2ccc(N(C)C)cc2)c2ccccn2)cc1 (centres unmarked) [Compound 26, 4-((4-methoxyphenyl)(pyridin-2-yl)methoxy)-N,N-dimethylaniline]	> 50 µM	> 50 µM			
COc1ccc(C(=Cc2ccc(C)cc2)c2ccccn2)cc1 [Compound 7a, 2-(1-(4-methoxyphenyl)-2-(p-tolyl)vinyl)pyridine]	> 50 µM	35 ± 1.99 µM			viability at 50 µM (human CRC HT-29 cells [1]; Homo sapiens, 48 h): < 50%
COc1ccc(C(Oc2ccc(Br)cc2)c2ccccn2)cc1 (centres unmarked) [Compound 22, 2-((4-bromophenoxy)(4-methoxyphenyl)methyl)pyridine]	41.5 ± 1.48 µM	37.9 ± 1.87 µM			viability at 50 µM (human CRC HCT116 cells; [3]): < 50%; antiproliferative activity HCT116 (in words) (human CRC HCT116 cells; [4]): potential antiproliferative activity; viability at 50 µM (human CRC HT-29 cells [1]; Homo sapiens, 48 h): < 50%; antiproliferative activity HT-29 (in words) (human CRC HT-29 cells [1]; [4]): potential antiproliferative activity
COc1ccc(C(Oc2ccc(C(C)(C)C)cc2)c2ccccn2)cc1 (centres unmarked) [Compound 20, 2-((4-(tert-butyl)phenoxy)(4-methoxyphenyl)methyl)pyridine]	> 50 µM	> 50 µM			
COc1ccc(C(Oc2ccc(C)cc2)c2ccccn2)cc1 (centres unmarked) [Compound 18, 2-((4-methoxyphenyl)(p-tolyloxy)methyl)pyridine]	> 50 µM	> 50 µM			
COc1ccc(OC(c2ccc(OC)cc2)c2ccccn2)cc1 (centres unmarked) [Compound 19, 2-((4-methoxyphenoxy)(4-methoxyphenyl)methyl)pyridine]	> 50 µM	> 50 µM			
COc1ccc(C(=Cc2ccc(Cl)cc2)c2ccccn2)cc1 [Compound 14b, 2-(2-(4-chlorophenyl)-1-(4-methoxyphenyl)vinyl)pyridine]			> 50 µM	> 50 µM	
COc1ccc(C(=Cc2ccc(C(F)(F)F)cc2)c2ccccn2)cc1 [Compound 12b, 2-(1-(4-methoxyphenyl)-2-(4-(trifluoromethyl)phenyl)vinyl)pyridine]			> 50 µM	> 50 µM	

— PMC9855432, “Novel Set of Diarylmethanes to Target Colorectal Cancer: Synthesis, In Vitro and In Silico Studies” (Biomolecules, 2022)
